Here are results for 24 compounds from PubChem BioAssay AID652164 (Sanford-Burnham Center for Chemical Genomics, 2013).

Calls of active or inactive are those of the source.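 The calls were made as follows: active = IC50 at or below 20 µM; inactive = the rest.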

The test deals with Fatty acid synthase (Homo sapiens) (UniProt P49327). Description: inhibition of human FAS-TE enzyme activity – biochemical, endpoint fluorescence intensity, powder samples, SAR follow-up (AID 652164). The settings on record: recombinant FAS-TE, OMFH substrate fluorescence.
Sequence of Fatty acid synthase (Homo sapiens) (P49327 whole entry, looked up): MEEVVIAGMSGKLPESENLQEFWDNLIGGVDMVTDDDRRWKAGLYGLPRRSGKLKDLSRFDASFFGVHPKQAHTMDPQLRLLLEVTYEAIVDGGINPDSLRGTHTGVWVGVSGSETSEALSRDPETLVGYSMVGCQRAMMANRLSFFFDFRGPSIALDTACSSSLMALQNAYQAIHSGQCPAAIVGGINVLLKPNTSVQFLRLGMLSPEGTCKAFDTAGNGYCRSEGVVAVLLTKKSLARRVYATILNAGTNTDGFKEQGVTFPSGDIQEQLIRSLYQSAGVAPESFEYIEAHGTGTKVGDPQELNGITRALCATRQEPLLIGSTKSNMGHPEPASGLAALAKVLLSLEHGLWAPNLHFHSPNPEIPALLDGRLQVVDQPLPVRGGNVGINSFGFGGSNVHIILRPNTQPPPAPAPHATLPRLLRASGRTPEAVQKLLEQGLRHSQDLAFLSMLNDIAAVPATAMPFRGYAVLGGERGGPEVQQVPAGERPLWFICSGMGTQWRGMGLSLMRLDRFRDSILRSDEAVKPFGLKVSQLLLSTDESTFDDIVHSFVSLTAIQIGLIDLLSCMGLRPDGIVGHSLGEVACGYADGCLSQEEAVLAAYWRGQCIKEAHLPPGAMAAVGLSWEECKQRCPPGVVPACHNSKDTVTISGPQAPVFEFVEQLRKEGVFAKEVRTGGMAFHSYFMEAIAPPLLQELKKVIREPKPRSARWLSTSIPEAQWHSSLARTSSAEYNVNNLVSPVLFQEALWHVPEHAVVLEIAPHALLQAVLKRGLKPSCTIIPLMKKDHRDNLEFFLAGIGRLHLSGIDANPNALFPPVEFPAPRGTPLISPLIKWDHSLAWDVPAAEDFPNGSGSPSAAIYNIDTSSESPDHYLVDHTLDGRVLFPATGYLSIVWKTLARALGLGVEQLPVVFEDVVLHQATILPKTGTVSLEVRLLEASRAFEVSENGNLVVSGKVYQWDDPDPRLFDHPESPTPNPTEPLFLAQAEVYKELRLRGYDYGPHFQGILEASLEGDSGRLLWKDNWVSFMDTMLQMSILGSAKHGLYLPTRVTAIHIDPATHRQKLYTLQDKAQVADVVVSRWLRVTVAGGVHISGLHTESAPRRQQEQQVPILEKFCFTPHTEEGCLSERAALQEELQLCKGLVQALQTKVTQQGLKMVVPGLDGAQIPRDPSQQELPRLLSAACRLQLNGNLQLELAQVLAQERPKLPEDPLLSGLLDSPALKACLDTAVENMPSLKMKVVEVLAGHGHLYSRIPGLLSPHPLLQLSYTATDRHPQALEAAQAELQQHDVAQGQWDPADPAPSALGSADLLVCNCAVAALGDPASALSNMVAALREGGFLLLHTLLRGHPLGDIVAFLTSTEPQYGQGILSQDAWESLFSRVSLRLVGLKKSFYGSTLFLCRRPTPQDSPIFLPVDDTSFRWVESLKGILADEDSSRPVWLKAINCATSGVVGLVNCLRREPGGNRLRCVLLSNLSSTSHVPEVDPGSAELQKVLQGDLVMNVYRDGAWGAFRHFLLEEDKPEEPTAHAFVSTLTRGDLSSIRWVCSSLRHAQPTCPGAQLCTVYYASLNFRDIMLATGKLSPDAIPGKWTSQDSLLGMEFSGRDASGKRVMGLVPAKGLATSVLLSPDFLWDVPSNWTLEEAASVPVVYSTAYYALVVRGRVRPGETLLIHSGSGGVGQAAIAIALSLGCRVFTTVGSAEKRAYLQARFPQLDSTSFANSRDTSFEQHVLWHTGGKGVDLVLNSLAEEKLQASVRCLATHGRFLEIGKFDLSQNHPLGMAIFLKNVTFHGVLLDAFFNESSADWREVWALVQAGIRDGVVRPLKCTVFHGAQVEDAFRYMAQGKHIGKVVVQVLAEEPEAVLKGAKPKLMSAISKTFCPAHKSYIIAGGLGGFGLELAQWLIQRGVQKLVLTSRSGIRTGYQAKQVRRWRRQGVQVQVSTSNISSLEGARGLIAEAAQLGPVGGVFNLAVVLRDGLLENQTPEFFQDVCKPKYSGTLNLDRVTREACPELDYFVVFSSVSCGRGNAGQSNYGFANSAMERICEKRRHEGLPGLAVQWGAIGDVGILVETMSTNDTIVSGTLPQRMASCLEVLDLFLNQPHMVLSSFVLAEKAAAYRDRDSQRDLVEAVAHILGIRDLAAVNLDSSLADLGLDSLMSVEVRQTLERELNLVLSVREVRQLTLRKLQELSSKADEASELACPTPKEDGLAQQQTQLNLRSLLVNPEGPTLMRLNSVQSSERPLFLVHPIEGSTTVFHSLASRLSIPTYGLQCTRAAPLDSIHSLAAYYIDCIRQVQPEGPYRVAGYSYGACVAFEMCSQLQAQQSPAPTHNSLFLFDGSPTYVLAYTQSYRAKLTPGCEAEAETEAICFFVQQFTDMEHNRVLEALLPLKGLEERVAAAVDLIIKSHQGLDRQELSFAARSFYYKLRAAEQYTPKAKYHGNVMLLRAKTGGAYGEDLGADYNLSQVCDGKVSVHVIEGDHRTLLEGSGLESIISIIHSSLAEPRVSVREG

As a reminder, the IC50 is the concentration that inhibits the measured activity by half. On to `O=C(Nc1nc(-c2ccc(S(=O)(=O)N3CCCC3)cc2)cs1)C1CC1`, for which the half-inhibitory concentration (IC50) is 558 nM. As for `CC1CCN(S(=O)(=O)c2ccc(-c3csc(NC(=O)C(C)C)n3)cc2)CC1`, the figure is 658 nM; as for `CC(C)C(=O)Nc1nc(-c2ccc(S(=O)(=O)N3CCCC3)cc2)cs1`, 277 nM. As for `O=C(Nc1nc(-c2ccc(S(=O)(=O)N3CCCC3)cc2)cs1)C1CCC1`, the 50% inhibitory concentration (IC50) was 398 nM. As for `CCC(=O)Nc1nc(-c2ccc(S(=O)(=O)N3CCCC3)cc2)cs1`, the IC50 is 648 nM.

Regarding `CC(C)(C)OC(=O)Nc1nc(-c2ccc(S(=O)(=O)N3CCOCC3)cc2)cs1`, the IC50 result was “inactive”. Take `CCCCC(=O)Nc1nc(-c2ccc(S(=O)(=O)N3CCOCC3)cc2)cs1`: the IC50 is 552 nM. Consider `CCC(=O)Nc1nc(-c2ccc(S(=O)(=O)N(CC)CC)cc2)cs1`, for which the IC50 was 4250 nM.

With `O=C(Nc1nc(-c2ccc(S(=O)(=O)N3CCOCC3)cc2)cs1)C1CC1`, the IC50 is 5210 nM. With `CCCCC(=O)Nc1nc(-c2ccc(S(=O)(=O)N(CC)CC)cc2)cs1`, the IC50 is 172 nM. As for `CCCCC(=O)Nc1nc(-c2ccc(S(=O)(=O)N3CCCC3)cc2)cs1`, the figure is 201 nM. On to `CCC(=O)Nc1nc(-c2ccc(S(=O)(=O)N3CCOCC3)cc2)cs1`, for which the IC50 is 4520 nM.

Regarding `CCN(CC)S(=O)(=O)c1ccc(-c2csc(NC(=O)C(C)C)n2)cc1`, the half-inhibitory concentration (IC50) is 281 nM. In the case of `CCC(C)C(=O)Nc1nc(-c2ccc(S(=O)(=O)N3CCOCC3)cc2)cs1` (centres undefined) it was 311 nM. As for `O=C(Nc1nc(-c2ccc(S(=O)(=O)N3CCCC3)cc2)cs1)C1CCCC1`, the figure is 729 nM; as for `CCN(CC)S(=O)(=O)c1ccc(-c2csc(NC(=O)C3CCCCC3)n2)cc1`, 2930 nM; as for `O=C(Nc1nc(-c2ccc(S(=O)(=O)N3CCOCC3)cc2)cs1)C1CCC1`, 3590 nM. For the compound `CCCCC(=O)Nc1nc(-c2ccc(S(=O)(=O)N3CCSCC3)cc2)cs1`, the IC50 is 713 nM. In the case of `CCC(CC)C(=O)Nc1nc(-c2ccc(S(=O)(=O)N3CCOCC3)cc2)cs1` it was 334 nM; in that of `CC(C)C(=O)Nc1nc(-c2ccc(S(=O)(=O)N(C)C)cc2)cs1`, 575 nM; in that of `CCC(C)C(=O)Nc1nc(-c2ccc(S(=O)(=O)N(CC)CC)cc2)cs1` (centres undefined), 300 nM. As for `CC(C)CC(=O)Nc1nc(-c2ccc(S(=O)(=O)N3CCOCC3)cc2)cs1`, the figure is 11600 nM. As to `CCCCC(=O)Nc1nc(-c2ccc(S(=O)(=O)N3CCC(C)CC3)cc2)cs1`, the IC50 is 501 nM.

As for `CCN(CC)S(=O)(=O)c1ccc(-c2csc(NC(=O)C3CC3)n2)cc1`, the IC50 was 2320 nM.
